Measured values: the supplement of paper PMC5579334

How the values were obtained:
S1507-2 [1] = assay: relative IC50 (inflection point of fitted dose-response curve, CellTiter-Glo viability, 72 h; top asymptote may be below 50% inhibition); higher = less potent
Summary of the method: (§1)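 Viability of MPNST cell lines and primary human Schwann cells was read as CellTiter-Glo ATP luminescence after 72 h at 37 °C, 5% CO2, in 384-well plates seeded with 750–1000 cells per well. Each compound had been preprinted at five concentrations in 10-fold steps. Signals were scaled between vehicle and positive-control wells, duplicates averaged where present, and fitted with four-parameter logistic curves. Drug sensitivity score and relative IC50 (censored at the top concentration) come from those fits, and percent inhibition is taken at the top concentration.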

HS-Sch-2 = assay: as above
Summary of the method: as §1

ST8814 [2] = assay: as above
Summary of the method: as §1

HSC2 [3] = assay: as above
Summary of the method: as §1

YST-1 = assay: as above
Summary of the method: as §1

STS26T [4] = assay: as above
Summary of the method: as §1

HSC1 [5] = assay: as above
Summary of the method: as §1

HS-PSS [6] = assay: as above
Summary of the method: as §1

S462 = assay: as above
Summary of the method: as §1

S1507-2 [7] = assay: relative IC50 (inflection point of fitted dose-response curve, CellTox-Green cytotoxicity, 72 h; top asymptote may be below 50%); higher = less potent
Summary of the method: (§2)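 MPNST cell lines and primary human Schwann cells were grown for 72 h at 37 °C in 384-well plates containing five 10-fold compound dilutions. CellTox-Green, added before seeding at a final 1:1000 dilution, gave fluorescence from DNA released by disrupted cells, and signals were scaled to vehicle and positive-control wells. Curves were fitted with a four-parameter logistic model. Drug sensitivity score and relative IC50 come from these fits, with IC50 censored at the top concentration.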

ST8814 [8] = assay: as above
Summary of the method: as §2

HSC2 [9] = assay: as above
Summary of the method: as §2

STS26T [10] = assay: as above
Summary of the method: as §2

HSC1 [11] = assay: as above
Summary of the method: as §2

HS-PSS [12] = assay: as above
Summary of the method: as §2

## CC(C)(C)c1cnc(CSc2cnc(NC(=O)C3CCNCC3)s2)o1 [SNS-032]
S1507-2 [1]
  relative IC50: 141 nM
HS-Sch-2
  relative IC50: 48.5 nM
ST8814 [2]
  relative IC50: 46.6 nM
HSC2 [3]
  relative IC50: 3.76 nM
YST-1
  relative IC50: 38.3 nM
STS26T [4]
  relative IC50: 21 nM
HSC1 [5]
  relative IC50: 5.57 nM
HS-PSS [6]
  relative IC50: 26.7 nM
S462
  relative IC50: 10.4 nM
S1507-2 [7]
  relative IC50: > 10000 nM
ST8814 [8]
  relative IC50: 27.2 nM
HSC2 [9]
  relative IC50: 6.74 nM
STS26T [10]
  relative IC50: 15.9 nM
HSC1 [11]
  relative IC50: 11.9 nM
HS-PSS [12]
  relative IC50: 2450 nM

## O=[N+]([O-])c1ccc2c(c1)S(=O)(=O)C=C2 [Stattic]
S1507-2 [1]
  relative IC50: 9570 nM
HS-Sch-2
  relative IC50: 1420 nM
ST8814 [2]
  relative IC50: 2410 nM
HSC2 [3]
  relative IC50: 3040 nM
YST-1
  relative IC50: 1740 nM
STS26T [4]
  relative IC50: 2990 nM
HSC1 [5]
  relative IC50: 1880 nM
HS-PSS [6]
  relative IC50: 1390 nM
S462
  relative IC50: 4990 nM
S1507-2 [7]
  relative IC50: 15900 nM
ST8814 [8]
  relative IC50: 4720 nM
HSC2 [9]
  relative IC50: 7900 nM
STS26T [10]
  relative IC50: 2270 nM
HSC1 [11]
  relative IC50: 2450 nM
HS-PSS [12]
  relative IC50: 2870 nM

## Nc1nc(NC2CC2)cc(-c2cccc(Cl)c2Cl)n1 [TH588]
S1507-2 [1]
  relative IC50: 4360 nM
HS-Sch-2
  relative IC50: 4160 nM
ST8814 [2]
  relative IC50: 3830 nM
HSC2 [3]
  relative IC50: 4280 nM
YST-1
  relative IC50: 3620 nM
STS26T [4]
  relative IC50: 3710 nM
HSC1 [5]
  relative IC50: 5430 nM
HS-PSS [6]
  relative IC50: 3820 nM
S462
  relative IC50: 6910 nM
S1507-2 [7]
  relative IC50: 4040 nM
ST8814 [8]
  relative IC50: 5560 nM
HSC2 [9]
  relative IC50: 3820 nM
STS26T [10]
  relative IC50: 3540 nM
HSC1 [11]
  relative IC50: 4520 nM
HS-PSS [12]
  relative IC50: > 25000 nM

## C=CCNC1=C2C[C@@H](C)C[C@H](OC)[C@H](O)[C@@H](C)/C=C(\C)[C@H](OC(N)=O)[C@@H](OC)/C=C\C=C(/C)C(=O)NC(=CC1=O)C2=O [Tanespimycin]
S1507-2 [1]
  relative IC50: 170 nM
HS-Sch-2
  relative IC50: 128 nM
ST8814 [2]
  relative IC50: 158 nM
HSC2 [3]
  relative IC50: 380 nM
YST-1
  relative IC50: 49.4 nM
STS26T [4]
  relative IC50: 108 nM
HSC1 [5]
  relative IC50: 421 nM
HS-PSS [6]
  relative IC50: 157 nM
S462
  relative IC50: 310 nM
S1507-2 [7]
  relative IC50: 397 nM
ST8814 [8]
  relative IC50: 729 nM
HSC2 [9]
  relative IC50: 258 nM
STS26T [10]
  relative IC50: 160 nM
HSC1 [11]
  relative IC50: 321 nM
HS-PSS [12]
  relative IC50: 460 nM

## COc1cc([C@@H]2c3cc4c(cc3[C@@H](O[C@@H]3O[C@@H]5CO[C@@H](c6cccs6)O[C@H]5[C@H](O)[C@H]3O)[C@H]3COC(=O)[C@H]23)OCO4)cc(OC)c1O [Teniposide]
S1507-2 [1]
  relative IC50: 314 nM
HS-Sch-2
  relative IC50: 482 nM
ST8814 [2]
  relative IC50: 193 nM
HSC2 [3]
  relative IC50: 88.5 nM
YST-1
  relative IC50: 50.1 nM
STS26T [4]
  relative IC50: 227 nM
HSC1 [5]
  relative IC50: 68.8 nM
HS-PSS [6]
  relative IC50: 1240 nM
S462
  relative IC50: 112 nM
S1507-2 [7]
  relative IC50: 1410 nM
ST8814 [8]
  relative IC50: 219 nM
HSC2 [9]
  relative IC50: 1430 nM
STS26T [10]
  relative IC50: 266 nM
HSC1 [11]
  relative IC50: 1150 nM
HS-PSS [12]
  relative IC50: 3010 nM

## CC[C@@]1(O)C(=O)OCc2c1cc1n(c2=O)Cc2cc3c(CN(C)C)c(O)ccc3nc2-1 [Topotecan]
S1507-2 [1]
  relative IC50: 173 nM
HS-Sch-2
  relative IC50: 136 nM
ST8814 [2]
  relative IC50: 42.5 nM
HSC2 [3]
  relative IC50: 90.9 nM
YST-1
  relative IC50: 44.1 nM
STS26T [4]
  relative IC50: 202 nM
HSC1 [5]
  relative IC50: 123 nM
HS-PSS [6]
  relative IC50: 323 nM
S462
  relative IC50: 52.4 nM
S1507-2 [7]
  relative IC50: 550 nM
ST8814 [8]
  relative IC50: 23.3 nM
HSC2 [9]
  relative IC50: 237 nM
STS26T [10]
  relative IC50: 197 nM
HSC1 [11]
  relative IC50: 50.8 nM
HS-PSS [12]
  relative IC50: 869 nM

## CN[C@@H]1C[C@H]2O[C@@](C)([C@@H]1OC)n1c3ccccc3c3c4c(c5c6ccccc6n2c5c31)C(=O)N[C@H]4O [UCN-01]
S1507-2 [1]
  relative IC50: 19.3 nM
HS-Sch-2
  relative IC50: 63.3 nM
ST8814 [2]
  relative IC50: 51.9 nM
HSC2 [3]
  relative IC50: 24.8 nM
YST-1
  relative IC50: 85.9 nM
STS26T [4]
  relative IC50: 44.3 nM
HSC1 [5]
  relative IC50: 44.8 nM
HS-PSS [6]
  relative IC50: 121 nM
S462
  relative IC50: 29.5 nM
S1507-2 [7]
  relative IC50: 159 nM
ST8814 [8]
  relative IC50: 257 nM
HSC2 [9]
  relative IC50: 158 nM
STS26T [10]
  relative IC50: 24.9 nM
HSC1 [11]
  relative IC50: 459 nM
HS-PSS [12]
  relative IC50: 2130 nM

## CCCCC(=O)OCC(=O)[C@]1(O)Cc2c(O)c3c(c(O)c2[C@@H](O[C@H]2C[C@H](NC(=O)C(F)(F)F)[C@H](O)[C@H](C)O2)C1)C(=O)c1c(OC)cccc1C3=O [Valrubicin]
S1507-2 [1]
  relative IC50: 534 nM
HS-Sch-2
  relative IC50: 264 nM
ST8814 [2]
  relative IC50: 285 nM
HSC2 [3]
  relative IC50: 258 nM
YST-1
  relative IC50: 97 nM
STS26T [4]
  relative IC50: 306 nM
HSC1 [5]
  relative IC50: 238 nM
HS-PSS [6]
  relative IC50: 422 nM
S462
  relative IC50: 233 nM
S1507-2 [7]
  relative IC50: > 5000 nM
ST8814 [8]
  relative IC50: > 5000 nM
HSC2 [9]
  relative IC50: > 5000 nM
STS26T [10]
  relative IC50: > 5000 nM
HSC1 [11]
  relative IC50: > 5000 nM
HS-PSS [12]
  relative IC50: > 5000 nM

## CC[C@@H]1C(=O)N(C)c2cnc(Nc3ccc(C(=O)N[C@H]4CC[C@H](N5CCN(CC6CC6)CC5)CC4)cc3OC)nc2N1C(C)C [Volasertib]
S1507-2 [1]
  relative IC50: 16.1 nM
HS-Sch-2
  relative IC50: 10.6 nM
ST8814 [2]
  relative IC50: 33.6 nM
HSC2 [3]
  relative IC50: 33.2 nM
YST-1
  relative IC50: 17.7 nM
STS26T [4]
  relative IC50: 7.29 nM
HSC1 [5]
  relative IC50: 34.5 nM
HS-PSS [6]
  relative IC50: 42.1 nM
S462
  relative IC50: 15.4 nM
S1507-2 [7]
  relative IC50: 12.7 nM
ST8814 [8]
  relative IC50: 34.1 nM
HSC2 [9]
  relative IC50: 25.2 nM
STS26T [10]
  relative IC50: 2.68 nM
HSC1 [11]
  relative IC50: 29.3 nM
HS-PSS [12]
  relative IC50: > 1000 nM

## O=C(CCCCCCC(=O)Nc1ccccc1)NO [Vorinostat]
S1507-2 [1]
  relative IC50: 1680 nM
HS-Sch-2
  relative IC50: 1770 nM
ST8814 [2]
  relative IC50: 1690 nM
HSC2 [3]
  relative IC50: 1570 nM
YST-1
  relative IC50: 687 nM
STS26T [4]
  relative IC50: 2250 nM
HSC1 [5]
  relative IC50: 1310 nM
HS-PSS [6]
  relative IC50: 2820 nM
S462
  relative IC50: 2090 nM
S1507-2 [7]
  relative IC50: 2660 nM
ST8814 [8]
  relative IC50: 3150 nM
HSC2 [9]
  relative IC50: 3430 nM
STS26T [10]
  relative IC50: 2570 nM
HSC1 [11]
  relative IC50: 3780 nM
HS-PSS [12]
  relative IC50: 2450 nM
